Consider one substance from patent EP4151202A1, “COMPOSITION FOR PREVENTING AND/OR TREATING WHITE STRETCH MARKS” (LSI Silderma Ltd, priority 2021, dated 2023).

The data set has as its system vergetures blanches. Put plainly: Tolerance of cutaneous application (side effects) on skin with white stretch marks. As to conditions: as active ingredient together with the excipients of formule 1. Type of data set: in vivo, individus. The text has this: Pour évaluer l'efficacité et la tolérance d'application de la composition de l'invention, 27 individus ont appliqué, matin et soir, pendant 90 jours, sur une zone de peau nettoyée avec vergetures blanches existantes, soit une composition selon l'invention, soit une composition « placebo ».
Chez chaque individu, la composition « placebo » a été appliquée sur une première moitié de la zone constituée par les vergetures blanches, et la composition de l'invention sur l'autre moitié de ladite zone. L'application cutanée sur les différentes zones de vergetures blanches a été accompagnée d'un léger massage pour favoriser la pénétration dans la peau de chacune des deux compositions. En moyenne, il a été appliqué entre 0,02 et 0,04 mL de composition / cm^2 de peau avec vergetures blanches.
On entend par « effet secondaire » des brûlures, irritations, démangeaisons ou tout autre type de modification de la peau au niveau de la surface d'application de la composition de l'invention. Ainsi, le palmitoyl-tripeptide-5, en tant que principe actif dermatologique, en association avec les excipients, est bien toléré en application cutanée.

With palmitoyl-tripeptide-5, the “tolérance en application cutanée” value was “bien toléré”.
